Laboratory results as given in article PMC12195707, “Evaluation of Antitumoral Activity in a 3D Cell Model of a Src Inhibitor Prodrug for Glioblastoma Treatment” (Pharmaceutics, 2025).
Where “and” joins values, the source holds several entries; their conditions need not be identical. Identical values can stand only once.

Columns and labels:
Src = assay: Western blot of Src activation (pSrc/Src) in bioprinted U251 cells; format: cell-based, human; details: bioprinted U251, 24 h, FBS-free DMEM; for Active form of Src, pSrc (Tyr416), vs. control: 1 or 10 µM, Western blot
Procedure: A solution of 2% alginate and 8% gelatin (bio-ink) made up the hydrogel utilized for bioprinting. After 15 min of UV light exposure, the powders were dissolved in sterile DPBS in a magnetic stirrer set at 50 °C with laminar flow. After being made, bioink was put in sterile syringes and kept at 4 °C until it was needed. Bioink had been equilibrated at 37 °C prior to the bioprinting process. After that, 2.7 mL of bioink was added to 20 × 10^6 cells that had been resuspended in 300 µL of growth media. Lastly, a disposable cartridge containing a cell/hydrogel suspension was equilibrated in a temperature-controlled printhead for 30 min at 29 °C. The BIO-X bioprinter (Cellink, Gothenburg, Sweden) was used to print in a 12-well plate at a speed of 5 mm/s and a dispensing pressure of 50 kPa, while the temperature was adjusted to 18 °C. Before adding culture media, three-dimensional constructs were crosslinked using CaCl2 for ten minutes and BaCl2 for three minutes. After 8 days, 3D structures, after evaluating cell viability, were treated for 72 h with SI306 and SI306-PD2 at selected concentrations and in different conditions: in complete DMEM high-glucose growth medium and DMEM-high glucose growth medium without FBS (w/o). Fiji ImageJ software (version 2.16.0/1.54p, https://imagej.net/software/fiji/downloads, accessed on 20 May 2025) was used to perform measurements of 3D models’ diameters on images acquired using phase contrast microscopy. A hemocytometer was used to set a scale for normalized measures and to convert real optic distance in pixels. At least five different optical fields were acquired, and the diameter was calculated for at least 100 different cell aggregates in each experimental point.
Cells were subjected to total protein extraction using a ready-to-use cell lysis buffer (Euroclone, Milan, Italy), supplemented by a Protease/Phosphatase Inhibitor Cocktail (Euroclone), diluted 1:100. Cell lysis was further facilitated by three cycles of sonication in an ultrasonic bath (JSP, Los Angeles, CA, USA). […]

in vitro = details: PAMPA, pH 7.4
Procedure: (§1) After being first dissolved in DMSO, the compounds were diluted 1:1 v/v using phosphate buffer (PBS 10 mM, pH 7.4). […] The gastrointestinal (GI) and blood–brain barrier (BBB) phospholipidic bilayers were mimicked by covering each well of the filter plate with either a 10%w/v CHCl3/dodecane brain polar lipid solution or a 1%w/v L-α-phosphatidylcholine solution (PC) in dodecane. After placing a DMSO/PBS 1:1v/v combination solution in the acceptor plate, the sandwich was gently shaken and incubated at room temperature for four hours. Samples were collected from the upper and bottom plates at the end time point, and the LC-UV/MS method was used for analysis. As previously reported, the apparent permeability (Papp cm/s × 10^−6) was quantified.

[1] = PAMPA assay, gastrointestinal (GI) membrane; format: in vitro ADME; details: four hours; for Papp at 4 h: pH 7.4, room temperature, read-out: Apparent permeability Papp; for Membrane retention MR: room temperature
Procedure: as §1

[2] = Stability/release in fetal bovine serum (FBS); details: for Stability (% unmodified compound): FBS, 37 °C; for half-life: bovine, fetal bovine serum (absolute FBS), pH 7.4
[3] = Stability/release in cell culture medium DMEM (10% FBS); format: in vitro ADME; details: 37 °C; for half-life: bovine, DMEM plus 10% FBS (cell culture medium), read-out: Half-life t1/2 (converted)
[4] = Stability/release in human plasma; details: for Stability (% unmodified compound): 37 °C; for half-life: human, pH 7.4

## ClC(Cn1ncc2c(Nc3cccc(Br)c3)nc(SCCN3CCOCC3)nc21)c1ccccc1 (stereo not shown) [SI306, N-(3-bromophenyl)-1-(2-chloro-2-phenylethyl)-6-((2-morpholinoethyl)thio)-1H-pyrazolo[3,4-d]pyrimidin-4-amine]
Src
  Active form of Src, pSrc (Tyr416), vs. control: evident reduction in the active form of Src, starting from 1 µM
In vitro
  Papp at 4 h: 8.44 ± 1.03 ×10⁻⁶ cm/s
[1]
  Papp at 4 h: 5.93 ± 0.38 ×10⁻⁶ cm/s
  Membrane retention MR: 60.09 ± 3.38%
[2]; time 0 h
  Stability (% unmodified compound): 100.24 ± 2.48%
[2]; time 0.083 h
  Stability (% unmodified compound): 99.67 ± 0.21%
[2]; time 0.25 h
  Stability (% unmodified compound): 98.42 ± 1.19%
[2]; time 0.5 h
  Stability (% unmodified compound): 98.49 ± 2.18%
[2]; time 1 h
  Stability (% unmodified compound): 97.91 ± 1.79%
[2]; time 2 h
  Stability (% unmodified compound): 93.95 ± 2.42 %
[2]; time 4 h
  Stability (% unmodified compound): 90.92 ± 2.68 %
[2]; time 6 h
  Stability (% unmodified compound): 90.51 ± 3.24 %
[2]; time 24 h
  Stability (% unmodified compound): 90.02% and 90.02 ± 2.28 %
[2]
  half-life: > 100 h
[3]; time 0 h
  Stability (% unmodified compound): 100.11 ± 0.91%
[3]; time 0.083 h
  Stability (% unmodified compound): 101.97 ± 2.32%
[3]; time 0.25 h
  Stability (% unmodified compound): 103.96 ± 1.68%
[3]; time 0.5 h
  Stability (% unmodified compound): 99.17 ± 1.10%
[3]; time 1 h
  Stability (% unmodified compound): 98.52 ± 3.69%
[3]; time 2 h
  Stability (% unmodified compound): 98.64 ± 1.79%
[3]; time 4 h
  Stability (% unmodified compound): 93.56 ± 1.79 %
[3]; time 6 h
  Stability (% unmodified compound): 92.30 ± 0.84 %
[3]; time 24 h
  Stability (% unmodified compound): 87.39% and 87.39 ± 0.41 %
[3]
  half-life: > 100 h
[4]; time 0 h
  Stability (% unmodified compound): 100.50 ± 2.32%
[4]; time 0.083 h
  Stability (% unmodified compound): 96.64 ± 2.74%
[4]; time 0.25 h
  Stability (% unmodified compound): 97.99 ± 2.48%
[4]; time 0.5 h
  Stability (% unmodified compound): 98.95 ± 1.18%
[4]; time 1 h
  Stability (% unmodified compound): 99.48 ± 1.70%
[4]; time 2 h
  Stability (% unmodified compound): 99.92 ± 0.61%
[4]; time 4 h
  Stability (% unmodified compound): 95.72 ± 0.76%
[4]; time 6 h
  Stability (% unmodified compound): 95.54 ± 1.74%
[4]; time 24 h
  Stability (% unmodified compound): 93.12% and 93.12 ± 1.70 %
[4]
  half-life: > 100 h

## O=C(OCCOCCO)N(c1cccc(Br)c1)c1nc(SCCN2CCOCC2)nc2c1cnn2CC(Cl)c1ccccc1 (stereo not shown) [SI306-PD2, 2-(2-Hydroxyethoxy)ethyl (3-Bromophenyl)(1-(2-chloro-2-phenylethyl)-6-((2-morpholinoethyl)thio)-1H-pyrazolo[3,4-d]pyrimidin-4-yl)carbamate]
Src; 10 µM, densitometric analysis
  pSrc/Src ratio normalized to control, prodrug vs. SI306: higher ability of the prodrug to inhibit the generation of phosphorylated Src than the SI306 compound
Src
  Active form of Src, pSrc (Tyr416), vs. control: evident reduction in the active form of Src, starting from 1 µM
In vitro
  Papp at 4 h: 19.5 ± 0.46 ×10⁻⁶ cm/s
[1]
  Papp at 4 h: 18.4 ± 2.32 ×10⁻⁶ cm/s
  Membrane retention MR: 5.26 ± 2.70%
[2]; time 0 h
  Stability (% unmodified compound): 100.06 ± 1.13%
[2]; time 0.083 h
  Stability (% unmodified compound): 93.64 ± 2.06%
[2]; time 0.25 h
  Stability (% unmodified compound): 92.56 ± 3.74%
[2]; time 0.5 h
  Stability (% unmodified compound): 89.39 ± 2.87%
[2]; time 2 h
  Stability (% unmodified compound): 79.26 ± 0.34%
[2]; time 4 h
  Stability (% unmodified compound): 64.90 ± 1.21%
[2]; time 6 h
  Stability (% unmodified compound): 56.13 ± 2.72%
[2]
  half-life: 10.7 h
[3]; time 0 h
  Stability (% unmodified compound): 100.02 ± 0.80%
[3]; time 0.083 h
  Stability (% unmodified compound): 100.22 ± 0.10%
[3]; time 0.25 h
  Stability (% unmodified compound): 103.59 ± 2.97%
[3]; time 0.5 h
  Stability (% unmodified compound): 98.01 ± 3.40%
[3]; time 1 h
  Stability (% unmodified compound): 91.48% and 91.48 ± 0.86%
[3]; time 2 h
  Stability (% unmodified compound): 85.45 ± 3.20%
[3]; time 4 h
  Stability (% unmodified compound): 81.41 ± 3.94%
[3]; time 24 h
  Stability (% unmodified compound): 40.07% and 40.07 ± 1.70%
[3]
  half-life: 18.1 h
[4]; time 0 h
  Stability (% unmodified compound): 101.03 ± 1.58%
[4]; time 0.083 h
  Stability (% unmodified compound): 90.12 ± 2.45%
[4]; time 0.25 h
  Stability (% unmodified compound): 89.41 ± 2.37%
[4]; time 0.5 h
  Stability (% unmodified compound): 89.57 ± 1.82%
[4]; time 2 h
  Stability (% unmodified compound): 88.55 ± 1.18%
[4]; time 4 h
  Stability (% unmodified compound): 71.86 ± 1.03%
[4]; time 6 h
  Stability (% unmodified compound): 70.80 ± 3.25%
[4]
  half-life: 10.9 h
